This is an account of results in ChEMBL document CHEMBL3808275, “Design, synthesis and SARs of novel salicylanilides as potent inhibitors of RANKL-induced osteoclastogenesis and bone resorption” (Eur J Med Chem, 2016).

In series [1] the test system is RAW264.7. Nature of the series: Inhibition of RANKL-induced osteoclast differentiation in mouse RAW264.7 cells assessed as TRAP-positive multinucleated cells level at 2.5 uM incubated with compound in presence of RANKL for 4 days by TRAP staining based light microscopic analysis relative to RANKL alone. The format is functional. The arrangement: scale not given: the % may be the effect or the level left.

Series [2] in a line: Cytotoxicity against mouse RAW264.7 cells assessed as survival rate at 2.5 uM after 24 hrs by MTT assay. The format is cell-based. The conditions noted are these: read-out: Survival.
A short description of series [3]: Cytotoxicity against mouse RAW264.7 cells assessed as reduction in cell viability after 24 hrs by MTT assay. The format is cell-based. A general note: Formazan colour is commonly taken as a measure of viable cells.
The subject of series [4] is RAW264.7. As to the kind of experiment: Cytotoxicity against mouse RAW264.7 cells assessed as reduction in cell viability at 5 uM after 24 hrs by MTT assay. The format is cell-based. The conditions noted are these: raw264.7, 24 h.
Series [5] has as its system RAW264.7. As to the kind of experiment: Inhibition of RANKL-induced osteoclast differentiation in mouse RAW264.7 cells assessed as reduction in TRAP-positive multinucleated cells level incubated with compound in presence of RANKL for 4 days by TRAP staining based light microscopic analysis relative to RANKL alone. The format is functional, cell-based. The conditions noted are these: RAW264.7, 96 h.

Structures are written as SMILES.

As to `O=C(Nc1ccc(I)cc1F)c1cc(Br)ccc1O`, the Activity in the series on RAW264.7 [1] is reported as 16%; in the series with RAW264.7 [4] it was “Toxic”. The viability at 24 h, 2.5 µM in series [2] is 99.6%. The CC50 – broadly, the concentration giving 50% cytotoxicity – at 24 h in series [3] amounted to 6.4 µM. For the same molecule, the 50% inhibitory concentration (IC50) (in general, the midpoint of a concentration-inhibition curve) in the series with RAW264.7 [5] was 1.93 µM.

Consider `O=C(Nc1ccc(Br)cc1F)c1cc(F)ccc1O`, for which the Activity with RAW264.7 [1] is given as 8.7%; with RAW264.7 [4] it was “Toxic”. For the same molecule, in series [2], the viability at 24 h, 2.5 µM stood at 102%. In addition, in series [3], the CC50 at 24 h turned out to be 7.9 µM. Also, in the series with RAW264.7 [5], the IC50 came to 1.86 µM.

Take `O=C(Nc1ccc(Cl)cc1F)c1cc(Cl)ccc1O`: the Activity is given as 15.8% in the series with RAW264.7 [1] and “Toxic” in the series on RAW264.7 [4]. Further, in series [2], the viability at 24 h, 2.5 µM stood at 109%. In series [3], the CC50 at 24 h amounted to 8 µM. For the same molecule, the IC50 in the series with RAW264.7 [5] turned out to be 2.12 µM.

Regarding `O=c1oc2ccc(Cl)cc2c(=O)n1-c1ccc(I)cc1F`, the results for the Activity in the series on RAW264.7 [1] and in the series on RAW264.7 [4] were 19.1% and “Toxic”, respectively. Also, in series [2], the viability at 24 h, 2.5 µM is 95.5%. In series [3], the CC50 at 24 h stood at 6.9 µM. Besides, in the series on RAW264.7 [5], the IC50 was 2.05 µM.

For `O=C(Nc1ccc(I)cc1F)c1cc(Cl)ccc1O`, the Activity in the series on RAW264.7 [1] is on record as 2.9%; with RAW264.7 [4], “Toxic”. In series [2], the viability at 24 h, 2.5 µM was 108%. In addition, the CC50 at 24 h in series [3] was 7.6 µM. In addition, in the series with RAW264.7 [5], the IC50 turned out to be 1.84 µM.

For `O=C1c2ccccc2Oc2cc([N+](=O)[O-])ccc2N1c1ccc(I)cc1F`, the Activity is 88.6% in the series on RAW264.7 [1] and “Toxic” in the series on RAW264.7 [4]. Further, the viability at 24 h, 2.5 µM in series [2] amounted to 87.2%. Moreover, the CC50 at 24 h in series [3] is greater than 40 µM.

Turning to `O=C(Nc1ccc(F)cc1F)c1cc(Cl)ccc1O`, the Activity in the series with RAW264.7 [1] is recorded as 93.3%; in the series on RAW264.7 [4] it was “Toxic”. Moreover, the viability at 24 h, 2.5 µM in series [2] is 109%. In addition, the half-maximal cytotoxic concentration (CC50) at 24 h in series [3] turned out to be 14.6 µM.

For `O=C1c2cc(F)ccc2Oc2cc([N+](=O)[O-])ccc2N1c1ccc(I)cc1F`, the figures for the Activity with RAW264.7 [1] and with RAW264.7 [4] were 85.3% and “Toxic”, respectively. Besides, the viability at 24 h, 2.5 µM in series [2] amounted to 95.3%. Moreover, the CC50 at 24 h in series [3] is greater than 40 µM.

On to `O=C(Nc1ccc(Br)cc1F)c1cc(Cl)ccc1O`, for which the results for the Activity with RAW264.7 [1] and in the series with RAW264.7 [4] were 23.3% and “Toxic”, respectively. The viability at 24 h, 2.5 µM in series [2] was determined as 106%. In addition, in series [3], the CC50 at 24 h amounted to 7.8 µM. Also, the IC50 with RAW264.7 [5] came to 2.14 µM.

In the case of `O=C(Nc1ccc(F)cc1F)c1cc(Br)ccc1O`, the Activity in the series on RAW264.7 [1] is reported as 95.2%; in the series on RAW264.7 [4], “Toxic”. Further, the viability at 24 h, 2.5 µM in series [2] was 91.9%. For the same molecule, the CC50 at 24 h in series [3] came out at 13.8 µM.

In the case of `O=C1c2cc(I)ccc2Oc2cc([N+](=O)[O-])ccc2N1c1ccc(I)cc1F`, the Activity with RAW264.7 [1] was 55.7%; in the series on RAW264.7 [4], “Toxic”. Also, the viability at 24 h, 2.5 µM in series [2] came out at 98.9%. Besides, the CC50 at 24 h in series [3] was greater than 40 µM.

Regarding `O=C1c2cc(Br)ccc2Oc2cc([N+](=O)[O-])ccc2N1c1ccc(Br)cc1F`, the Activity in the series with RAW264.7 [1] is reported as 84.2%; in the series with RAW264.7 [4] it was “Toxic”. In addition, the viability at 24 h, 2.5 µM in series [2] came to 88.7%. Besides, in series [3], the CC50 at 24 h was greater than 40 µM.
